Assay results: patent publication US8031338B2, “Measuring Forster resonance energy transfer with polarized and depolarized light” (Vanderbilt University, priority 2004, dated 2011)

Key:
[1] = test system: COS-7 cells expressing SCAT3.1 (caspase-3 cleavage site); details: COS-7 cells expressing SCAT3.1, 96-well plate; 10 μM H2O2 for 90 min; FIG. 6D
[2] = test system: COS-7 cells expressing SCAT3.1 (caspase-3 cleavage site); assay: A-FRET microscopy of SCAT 3.1 apoptosis sensor cleavage in live cells; assay type: cell-based; details: COS-7 cells transfected with SCAT 3.1; imaged immediately after treatment and after 5 hours; FIG. 6A-C
Experimental: Sample Preparation. Beads from a 5 ml HiTRAP chelating HP column (Amersham Biosciences) were charged using a 0.1M NiSO (Rizzo and Piston, 2005) solution and washed with 50 mM TrisHCl. The beads were then labeled as described (Youvan et al., 1997) with purified mCerulean, mVenus, or a linker protein containing mVenus and mCerulean separated by the linker sequence […]. Histadine-tagged recombinant protein was bacterially expressed and purified as previously described (Rizzo et al., 2004). For living cell studies, plasmid DNA encoding FP constructs were introduced was into COS-7 cells using FUGENE (Roche) transfection reagent according to the manufacturer's instructions. […]
Fluorescence Imaging. […] Fluorescence emission was filtered through a 515-540 nm bandpass filter and 2 mm BGG22 glass prior to separation vertical and horizontal polarizations with a broadband polarizing cube beam splitter (Newport). […]
To test the ability of this approach to measure FRET changes in a live cell based assay, COS-7 cells were transfected with the apoptosis sensor, SCAT 3.1 (Nagai and Miyawaki, 2004), which consists of cyan and yellow FPs separated by a caspase-3 cleavage site (FIG. 6A). […] SCAT 3.1 cleavage was also monitored in cells grown on a 96-well plate. […] The use of an intrinsic parameter, such as anisotropy, enables absolute threshold values to be determined for occurrence of FRET during an assay. […]

Row | SMILES | overall anisotropy in the yellow emission channel, indicating caspase-3 activation [1] | emission in the yellow FP channel (polarization) following induction of apoptosis [2]
1 | OO [hydrogen peroxide] | increase in the overall anisotropy | 
2 | CN[C@@H]1C[C@H]2O[C@@](C)([C@@H]1OC)n1c3ccccc3c3c4c(c5c6ccccc6n2c5c31)C(=O)NC4 [staurosporine] |  | changes from highly depolarized fluorescence to highly polarized fluorescence
